ChEMBL document CHEMBL3612013, “Cyclodextrin complexation highly enhances efficacy of arylsulfonylureido benzenesulfonamide carbonic anhydrase inhibitors as a topical antiglaucoma agents” (Bioorg Med Chem, 2015)
≈ marks a conversion by molar mass, not a printed value.

Experiments:
[1] = Aqueous solubility in pH 7.4 PBS in presence of hydroxypropyl-alpha cyclodextrin incubated for 48 hrs at 25 degC by spectrophotometry; format: physicochemical; conditions: PBS with hydroxypropyl-alpha cyclodextrin
Oryctolagus cuniculus [2] = experiment: Toxicity in New Zealand albino rabbit model of carbomer-induced hypertensive eye glaucoma assessed as induction of eye irritation at 2% directly instilled into conjunctive pocket measured 24 hrs post drug administration; format: organism-based; conditions: in vivo, topical_or_ocular
Oryctolagus cuniculus [3] = experiment: (§1) Antiglaucoma activity in New Zealand albino rabbit model of carbomer-induced hypertensive eye glaucoma assessed as intraocular pressure at 0.37% using compound complexed with cyclodextrin directly instilled into conjunctive pocket measured 1 hr post drug administration (reference value: 45 to 50 mmHg); format: functional
[4] = Aqueous solubility in pH 7.4 PBS in presence of gamma-cyclodextrin incubated for 48 hrs at 25 degC by spectrophotometry; format: physicochemical; conditions: PBS with gamma-cyclodextrin
[5] = Aqueous solubility in pH 7.4 PBS incubated for 48 hrs at 25 degC by spectrophotometry; format: physicochemical
[6] = Stability of the compound; format: physicochemical
[7] = Aqueous solubility in pH 7.4 PBS in presence of hydroxypropyl-beta cyclodextrin incubated for 48 hrs at 25 degC by spectrophotometry; format: physicochemical; conditions: PBS with hydroxypropyl-beta cyclodextrin
Oryctolagus cuniculus [8] = experiment: as §1, with “24 hrs” for “1 hr”; format: functional
Oryctolagus cuniculus [9] = experiment: (§2) Toxicity in New Zealand albino rabbit model of carbomer-induced hypertensive eye glaucoma assessed as induction of eye irritation at 0.37% using compound complexed with cyclodextrin directly instilled into conjunctive pocket measured 24 hrs post drug administration; format: organism-based; conditions: in vivo, topical_or_ocular
[10] = Equilibrium solubility in pH 7.4 PBS in presence of hydroxypropyl-gamma cyclodextrin incubated for 48 hrs at 25 degC by spectrophotometry; format: physicochemical; conditions: PBS with hydroxypropyl-gamma cyclodextrin
[11] = Aqueous solubility in pH 7.4 PBS in presence of hydroxyethyl-beta cyclodextrin incubated for 48 hrs at 25 degC by spectrophotometry; format: physicochemical; conditions: PBS with hydroxyethyl-beta cyclodextrin
[12] = Aqueous solubility in pH 7.4 PBS in presence of sulfobutyl-ether-beta cyclodextrin incubated for 48 hrs at 25 degC by spectrophotometry; format: physicochemical; conditions: PBS with sulfobutyl-ether-beta cyclodextrin
Oryctolagus cuniculus [13] = experiment: as §2, with “Antiglaucoma activity” for “Toxicity”, “time duration showing reduction in intraocular pressure” for “induction of eye irritation”; format: functional
[14] = Aqueous solubility in pH 7.4 PBS in presence of hydroxypropyl-gamma cyclodextrin incubated for 48 hrs at 25 degC by spectrophotometry; format: physicochemical; conditions: PBS with hydroxypropyl-gamma cyclodextrin
Oryctolagus cuniculus [15] = experiment: as §1, with “0.07%” for “0.37%”, “24 hrs” for “1 hr”; format: functional
Oryctolagus cuniculus [16] = experiment: as §2, with “Antiglaucoma activity” for “Toxicity”, “time duration showing reduction in intraocular pressure” for “induction of eye irritation”, “0.07%” for “0.37%”; format: functional
Oryctolagus cuniculus [17] = experiment: as §1, with “0.07%” for “0.37%”; format: functional
Oryctolagus cuniculus [18] = experiment: Toxicity in New Zealand albino rabbit model of carbomer-induced hypertensive eye glaucoma assessed as induction of eye irritation at 0.07% using compound complexed with cyclodextrin directly instilled into conjunctive pocket measured 24 hrs post drug administration; format: organism-based; conditions: in vivo, topical_or_ocular

## NS(=O)(=O)c1ccc(CCNC(=O)NS(=O)(=O)c2ccc(F)cc2)cc1
[1]
  solubility at 48 h: 1580 µg/mL
Oryctolagus cuniculus [2]
  Activity: Toxic
Oryctolagus cuniculus [3]
  Activity: 36 mmHg
[4]
  solubility at 48 h: 2260 µg/mL
[5]
  solubility at 48 h: 972 µg/mL (≈ 2420 µM)
[6]
  K: 76.3 M⁻¹
[7]
  solubility at 48 h: 2170 µg/mL
Oryctolagus cuniculus [8]
  Activity: 35 mmHg
Oryctolagus cuniculus [9]
  Activity: Toxic
[10]
  solubility thermodynamic at 48 h: 3700 µg/mL
[11]
  solubility at 48 h: 2240 µg/mL
[12]
  solubility at 48 h: 1810 µg/mL
Oryctolagus cuniculus [13]
  Time: 20 h
[14]
  solubility at 48 h: 2330 µg/mL

## Cc1ccc(S(=O)(=O)NC(=O)NCCc2ccc(S(N)(=O)=O)cc2)cc1
[1]
  solubility at 48 h: 141 µg/mL
Oryctolagus cuniculus [2]
  Activity: Toxic
[4]
  solubility at 48 h: 232 µg/mL
Oryctolagus cuniculus [15]
  Activity: 35 mmHg
Oryctolagus cuniculus [16]
  Time: 20 h
[5]
  solubility at 48 h: 87 µg/mL (≈ 219 µM)
[6]
  K: 143.75 M⁻¹
[7]
  solubility at 48 h: 212 µg/mL
Oryctolagus cuniculus [17]
  Activity: 36 mmHg
[10]
  solubility thermodynamic at 48 h: 700 µg/mL
[11]
  solubility at 48 h: 203 µg/mL
[12]
  solubility at 48 h: 174 µg/mL
Oryctolagus cuniculus [18]
  Activity: Toxic
[14]
  solubility at 48 h: 278 µg/mL
